Measurements reported in ChEMBL document CHEMBL4823295, “Design, synthesis and preliminary bioactivity evaluation of bitopic benzopyranomorpholine analogues as selective dopamine D3 receptor ligands as anti-drug addiction therapeutic agents” (Bioorg Med Chem Lett, 2021).
pKi: −log10 of the molar value. Activity calls are given as the source filed them. No cut-off for these calls is given here.

Key:
D(2) dopamine receptor = D(2) dopamine receptor (Homo sapiens, UniProt P14416); assay: Displacement of [3H]spiperone from human D2 receptor transfected in HEK293 cell membrane measured after 50 mins by competitive radioligand binding analysis; type: cell membranes
D(3) dopamine receptor = D(3) dopamine receptor (Homo sapiens, UniProt P35462); assay: Displacement of [3H]spiperone from human D3 receptor transfected in HEK293 cell membrane measured after 50 mins by competitive radioligand binding analysis; type: cell membranes
Homo sapiens = species: Homo sapiens; assay: Selectivity ratio of Ki for human D2 receptor transfected in HEK293 cell membrane to Ki for human D3 receptor transfected in HEK293 cell membrane; type: cell-based
Mus musculus [1] = assay: Anti-addiction activity in naloxone-induced withdrawal symptoms in morphine-dependent mouse model assessed as inhibition of naloxone-induced body weight loss at 50 mg/kg, ip administered 60 mins prior to naloxone injection and measured after 2 hrs of naloxone injection; type: functional, organism-based; conditions: time 3.0 hrs
Mus musculus [2] = assay: Anti-addiction activity in naloxone-induced withdrawal symptoms in morphine-dependent mouse model assessed as inhibition of naloxone-induced jumping response at 50 mg/kg, ip administered 60 mins prior to naloxone injection and measured for 30 mins after naloxone injection; type: functional, organism-based; conditions: time 90.0 min
[3] = Toxicity in naloxone-induced withdrawal symptoms in morphine-dependent mouse model assessed as mortality at 50 mg/kg, ip administered 60 mins prior to naloxone injection; type: organism-based; conditions: in vivo, 1 h
[4] = Toxicity in naloxone-induced withdrawal symptoms in morphine-dependent mouse model assessed as convulsions at 50 mg/kg, ip administered 60 mins prior to naloxone injection; type: organism-based; conditions: in vivo, 1 h
Mus musculus [5] = assay: Anti-addiction activity in naloxone-induced withdrawal symptoms in morphine-dependent mouse model assessed as reduction in diarrhea frequency at 50 mg/kg, ip administered 60 mins prior to naloxone injection and measured for 30 mins after naloxone injection; type: functional, organism-based; conditions: time 90.0 min
[6] = Toxicity in naloxone-induced withdrawal symptoms in morphine-dependent mouse model assessed as slow crawling at 50 mg/kg, ip administered 60 mins prior to naloxone injection; type: organism-based; conditions: in vivo, 1 h
[7] = Toxicity in naloxone-induced withdrawal symptoms in morphine-dependent mouse model assessed as inability to bounce at 50 mg/kg, ip administered 60 mins prior to naloxone injection; type: organism-based; conditions: in vivo, 1 h
Mus musculus [8] = assay: Anti-addiction activity in naloxone-induced withdrawal symptoms in morphine-dependent mouse model assessed as reduction in amount of diarrhea at 50 mg/kg, ip administered 60 mins prior to naloxone injection and measured for 30 mins after naloxone injection; type: functional, organism-based; conditions: time 90.0 min

D(2) dopamine receptor, sequence (P14416 whole entry): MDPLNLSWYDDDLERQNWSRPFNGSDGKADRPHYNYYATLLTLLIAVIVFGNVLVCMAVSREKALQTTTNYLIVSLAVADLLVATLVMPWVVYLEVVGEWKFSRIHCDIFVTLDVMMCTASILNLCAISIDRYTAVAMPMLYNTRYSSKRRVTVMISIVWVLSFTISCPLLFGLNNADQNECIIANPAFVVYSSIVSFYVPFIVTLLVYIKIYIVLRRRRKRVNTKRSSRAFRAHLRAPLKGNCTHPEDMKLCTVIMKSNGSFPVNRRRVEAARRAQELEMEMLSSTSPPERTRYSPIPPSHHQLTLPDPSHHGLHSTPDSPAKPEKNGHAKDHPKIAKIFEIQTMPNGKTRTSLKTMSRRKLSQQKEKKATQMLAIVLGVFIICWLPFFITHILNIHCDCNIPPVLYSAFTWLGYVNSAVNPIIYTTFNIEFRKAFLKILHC
D(3) dopamine receptor, sequence (P35462 whole entry): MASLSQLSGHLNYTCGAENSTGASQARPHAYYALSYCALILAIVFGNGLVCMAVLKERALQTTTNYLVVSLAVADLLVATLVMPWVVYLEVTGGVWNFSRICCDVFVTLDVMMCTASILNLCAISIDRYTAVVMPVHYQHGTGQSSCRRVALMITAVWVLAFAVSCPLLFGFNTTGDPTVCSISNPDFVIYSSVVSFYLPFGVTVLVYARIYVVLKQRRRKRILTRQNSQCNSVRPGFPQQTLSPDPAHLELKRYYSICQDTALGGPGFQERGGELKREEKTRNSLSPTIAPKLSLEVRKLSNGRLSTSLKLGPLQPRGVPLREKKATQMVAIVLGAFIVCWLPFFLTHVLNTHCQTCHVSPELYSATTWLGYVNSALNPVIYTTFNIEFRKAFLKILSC

SMILES	pKi (D(2) dopamine receptor)	pKi (D(3) dopamine receptor)	Ratio Ki (Homo sapiens)	Activity (Mus musculus [1])	Activity (Mus musculus [2])	Activity [3]	Activity [4]	Activity (Mus musculus [5])	Activity [6]	Activity [7]	Activity (Mus musculus [8])
COc1ccc2c(c1)[C@H]1OCCN(CCCCNC(=O)c3cccc(Cl)c3)[C@@H]1CO2 (racemic)	6.11	7.58	30	inactive	Active	–	–	–	–	–	–
O=C(NCCCCN1CCO[C@@H]2c3ccccc3OC[C@H]21)C1CCCCC1 (racemic)	6.14	7.20	11	Active	Active	–	–	–	–	–	–
COc1ccc2c(c1)[C@H]1OCCN(CCCCNC(=O)c3ccc([N+](=O)[O-])cc3)[C@@H]1CO2 (racemic)	6.23	7.86	42	Active	Active	–	–	–	–	–	–
O=C(NCCCCN1CCO[C@@H]2c3ccccc3OC[C@H]21)c1ccco1 (racemic)	6.07	7.93	73	Active	–	Toxic	Toxic	–	–	–	–
COc1ccccc1C(=O)NCCCCN1CCO[C@@H]2c3ccccc3OC[C@H]21 (racemic)	6.06	7.89	67	–	–	–	–	–	–	–	–
O=C(NCCCCN1CCO[C@@H]2c3ccccc3OC[C@H]21)c1ccc([N+](=O)[O-])cc1 (racemic)	6.02	7.47	28	Active	Active	–	–	Active	–	–	–
CCCN1CCO[C@@H]2c3cc(O)ccc3OC[C@H]21	7.37	8.74	23	–	–	–	–	–	–	–	–
COc1ccc2c(c1)[C@H]1OCCN(CCCCNC(=O)c3ccc(-c4ccccc4)cc3)[C@@H]1CO2 (racemic)	5.97	7.74	58	Active	–	–	–	–	–	–	–
COc1ccc2c(c1)[C@H]1OCCN(CCCCNC(=O)c3ccco3)[C@@H]1CO2 (racemic)	6.03	8.28	177	inactive	Active	–	–	–	–	–	–
O=C(NCCCCN1CCO[C@@H]2c3ccccc3OC[C@H]21)c1cccs1 (racemic)	6.38	7.73	23	Active	–	–	–	Active	–	–	–
O=C(NCCCCN1CCO[C@@H]2c3ccccc3OC[C@H]21)c1ccc(Br)cc1 (racemic)	6.05	7.87	66	inactive	–	–	–	–	–	–	–
COc1ccc2c(c1)[C@H]1OCCN(CCCCNC(=O)c3ccc4ccccc4c3)[C@@H]1CO2 (racemic)	6.19	7.70	32	Active	–	–	–	–	–	–	–
COc1ccc2c(c1)[C@H]1OCCN(CCCCNC(=O)c3cccs3)[C@@H]1CO2 (racemic)	6.10	8.18	122	–	–	–	Toxic	–	Toxic	Toxic	–
COc1ccc2c(c1)[C@H]1OCCN(CCCCNC(=O)c3ccc(Cl)cc3)[C@@H]1CO2 (racemic)	6.01	7.89	75	–	–	Toxic	–	–	–	–	–
COc1ccc2c(c1)[C@H]1OCCN(CCCCNC(=O)c3cc4ccccc4[nH]3)[C@@H]1CO2 (racemic)	6.14	9.01	755	Active	–	–	–	–	–	–	Active
O=C(NCCCCN1CCO[C@@H]2c3ccccc3OC[C@H]21)c1cccc2ccccc12 (racemic)	6.25	7.80	36	Active	Active	–	–	–	–	–	–
COc1ccc2c(c1)[C@H]1OCCN(CCCCNC(=O)c3ccc(Br)cc3)[C@@H]1CO2 (racemic)	6.02	8.07	111	Active	–	–	–	–	–	–	–

SMILES	pKi (D(2) dopamine receptor)	pKi (D(3) dopamine receptor)	Ratio Ki (Homo sapiens)	Activity (Mus musculus [1])	Activity (Mus musculus [2])	Activity [3]	Activity [4]	Activity (Mus musculus [5])	Activity [6]	Activity [7]	Activity (Mus musculus [8])
O=C(NCCCCN1CCO[C@@H]2c3ccccc3OC[C@H]21)c1ccc(Cl)cc1 (racemic)	6.33	7.75	27	Active	–	–	–	–	–	–	Active
O=C(NCCCCN1CCO[C@@H]2c3ccccc3OC[C@@H]21)c1ccc(Cl)cc1 (racemic)	–	< 6.00	–	Active	–	–	–	Active	–	–	–
COc1ccc2c(c1)[C@H]1OCCN(CCCCNC(=O)c3ccccc3)[C@@H]1CO2 (racemic)	6.25	7.86	41	Active	–	–	–	Active	–	–	–
COc1ccc2c(c1)[C@H]1OCCN(CCCCNC(=O)C3CCCCC3)[C@@H]1CO2 (racemic)	6.16	7.47	21	Active	Active	–	–	–	–	–	Active
O=C(NCCCCN1CCO[C@@H]2c3ccccc3OC[C@@H]21)c1cccs1 (racemic)	–	< 6.00	–	inactive	–	–	–	–	–	–	–
COc1ccc(C(=O)NCCCCN2CCO[C@@H]3c4cc(OC)ccc4OC[C@H]32)cc1 (racemic)	6.16	8.97	645	Active	Active	–	–	–	–	–	Active
COc1cc(C(=O)NCCCCN2CCO[C@@H]3c4ccccc4OC[C@H]32)cc(OC)c1OC (racemic)	6.15	8.17	104	inactive	–	–	–	–	–	–	–
COc1ccc(C(=O)NCCCCN2CCO[C@@H]3c4ccccc4OC[C@H]32)cc1 (racemic)	6.25	8.12	76	Active	Active	–	–	Active	–	–	–
COc1ccc2c(c1)[C@H]1OCCN(CCCCNC(=O)c3cccc4ccccc34)[C@@H]1CO2 (racemic)	6.06	7.70	43	Active	–	–	–	–	–	–	Active
O=C(NCCCCN1CCO[C@@H]2c3ccccc3OC[C@H]21)c1cccc(Cl)c1 (racemic)	6.18	7.63	28	Active	–	–	–	Active	–	–	–
O=C(NCCCCN1CCO[C@@H]2c3ccccc3OC[C@@H]21)c1ccc(-c2ccccc2)cc1 (racemic)	–	< 6.00	–	inactive	–	–	–	–	–	–	–
O=C(NCCCCN1CCO[C@@H]2c3ccccc3OC[C@H]21)c1ccc2ccccc2c1 (racemic)	6.14	7.86	53	Active	–	–	–	–	–	–	Active
O=C(NCCCCN1CCO[C@@H]2c3ccccc3OC[C@H]21)c1ccccc1 (racemic)	6.11	7.14	11	Active	Active	–	–	–	–	–	–
O=C(NCCCCN1CCO[C@@H]2c3ccccc3OC[C@H]21)c1ccc(-c2ccccc2)cc1 (racemic)	5.99	7.36	23	Active	Active	–	–	–	–	–	–
COc1ccc2c(c1)[C@H]1OCCN(CCCCNC(=O)c3cc(OC)c(OC)c(OC)c3)[C@@H]1CO2 (racemic)	6.02	8.91	782	–	–	–	Toxic	–	Toxic	Toxic	–
COc1ccc2c(c1)[C@H]1OCCN(CCCCNC(=O)c3cccnc3)[C@@H]1CO2 (racemic)	6.13	8.04	81	–	–	–	Toxic	–	Toxic	Toxic	–
O=C(NCCCCN1CCO[C@@H]2c3ccccc3OC[C@H]21)c1cc2ccccc2[nH]1 (racemic)	6.11	7.98	75	Active	Active	–	–	–	–	–	–
